# Patent US4396550A, “Dibenz [b,e] oxepin derivatives” (Kyowa Hakko Kogyo Co., Ltd., priority 1980, dated 1983)
# Assays:
# [1] = tested on: isolated ileum of guinea-pig; test: Test for anticholinergic effects on the isolated ileum of guinea-pig (acetylcholine contraction, in vitro); set-up: species or system guinea-pig (male Hartly-strain); settings: depressing ratio of 80% or more of acetylcholine contraction, compound 3 minutes before; for minimal effective concentration: Cavia porcellus, 0.05 h, read-out: Anticholinergic activity: MED (minimum effective dose)
# Method: (§1) Male Hartly-strain guinea-pigs weighing about 250 g are killed and the abdomen is opened. The part (2-3 cm in length) of the ileum 10 cm away from the caecum to the pylorus is cut off as a preparation. The preparation is suspended with serre-fine in a Magnus bath containing 10 ml of Tyrode's solution at 32±1° C. under an air bubble. The contraction of the ileum is recorded on Kymograph through hebel when 0.1 ml of acetylcholine at a concentration of 10^-3 g/ml is added to the Tyrode's solution.
# (§2) On the other hand, 3 minutes after administration of the test compounds, the same procedure as mentioned above is carried out to record the contraction.
# male dd-strain rats = test: Acute toxicity test (minimum lethal dose); type: in vivo; settings: mortality for 7 days
# Method: Groups of male dd-strain rats (each group consisting of five rats) weighing 20±1 g were used. The compounds of the present invention were administered orally (po: 0.3 mg/g) or intraperitoneally (ip: 0.1 mg/g). The MLD (minimum lethal dose) was calculated from the mortality for 7 days after the administration to obtain the results given in Table 1.
# [2] = tested on: isolated ileum of guinea-pig; test: Test for antihistaminergic effects on the isolated ileum of guinea-pig (histamine contraction, in vitro); set-up: species or system guinea-pig (male Hartly-strain); settings: depressing ratio of 80% or more of histamine contraction; for minimal effective concentration: Cavia porcellus, 0.05 h, read-out: Antihistaminergic activity: MED
# Method: as §1, §2
# In this test, 0.1 ml of histamine at a concentration of 5×10^-3 g/l is used.
# [3] = tested on: blood platelets (platelet-rich plasma); test: Test for the inhibition of platelet aggregation (collagen-induced, platelet-rich plasma); type: cell-based, male white rabbits; settings: depressing ratio of 50% of collagen-induced aggregation, compound 3 minutes before; for minimal effective concentration: Oryctolagus cuniculus, Platelet, 0.05 h, read-out: Antiplatelet aggregation activity: MED
# Method: In this test, 9 vols. of blood are sampled from the caroted artery of male white rabbits weighing 2 to 2.5 kg and placed in a silicon-coated flask containing 1 vol. of 3.8% sodium citrate. The thus obtained blood is centrifuged at 1,000 rpm for 15 minutes to obtain platelet-rich plasma. The aggregation of the blood platelets is observed using an aggregometer, when collagen is added to the platelet-rich plasma to the extent of the final concentration that 50% of platelet aggregation is caused in the presence of 100 γ/ml of aspirin. On the other hand, 3 minutes after administration of the test compounds to the platelet-rich plasma, the same procedure as mentioned above is carried out to observe the aggregation of blood platelet. The test compounds showing a depressing ratio of 50%, compared with the inhibition of aggregation by collagen alone, are concluded to have antiplatelet aggregation activity.
# Antiasthmatic activity = type: in vivo; settings: po; for minimal effective dose: read-out: Antiasthmatic activity: MED
compound,measurement,setting,value
"CN1CCN(C2c3ccccc3COc3ccc(F)cc32)CC1 (stereo not drawn) [Compound 69, 2-fluoro-11-(4-methyl-1-piperazinyl)-6,11-dihydrodibenz[b,e]oxepin]",minimal effective concentration,[1],3 µg/mL
same,Acute toxicity: MLD (minimum lethal dose),male dd-strain rats; ip,> 100 mg/kg
same,Acute toxicity: MLD (minimum lethal dose),male dd-strain rats; po,100 mg/kg
same,minimal effective concentration,[2],10 µg/mL
same,minimal effective concentration,[3],100 µg/mL
same,minimal effective dose,Antiasthmatic activity,100 mg/kg
"Fc1ccc2c(c1)C(NC1CN3CCC1CC3)c1ccccc1CO2 (stereo not drawn) [Compound 22, 2-fluoro-11-(3-quinuclidinyl)amino-6,11-dihydrodibenz[b,e]oxepin]",minimal effective concentration,[1],0.3 µg/mL
same,Acute toxicity: MLD (minimum lethal dose),male dd-strain rats; ip,100 mg/kg
same,Acute toxicity: MLD (minimum lethal dose),male dd-strain rats; po,300 mg/kg
same,minimal effective concentration,[2],0.3 µg/mL
same,minimal effective concentration,[3],100 µg/mL
same,minimal effective dose,Antiasthmatic activity,50 mg/kg
"CCN(CC)CCNC1c2ccccc2COc2ccc(C)cc21 (stereo not drawn) [Compound 8, 2-methyl-11-{2-(diethylamino)ethyl}amino-6,11-dihydrodibenz[b,e]oxepin]",minimal effective concentration,[1],10 µg/mL
same,Acute toxicity: MLD (minimum lethal dose),male dd-strain rats; ip,> 100 mg/kg
same,Acute toxicity: MLD (minimum lethal dose),male dd-strain rats; po,200 mg/kg
same,minimal effective concentration,[2],1 µg/mL
same,minimal effective concentration,[3],20 µg/mL
same,minimal effective dose,Antiasthmatic activity,25 mg/kg
"Cc1ccc2c(c1)C(NCCN1CCCC1)c1ccccc1CO2 (stereo not drawn) [Compound 58, 2-methyl-11-{2-(1-pyrrolidinyl)ethyl}amino-6,11-dihydrodibenz[b,e]oxepin]",minimal effective concentration,[1],3 µg/mL
same,Acute toxicity: MLD (minimum lethal dose),male dd-strain rats; ip,> 100 mg/kg
same,Acute toxicity: MLD (minimum lethal dose),male dd-strain rats; po,300 mg/kg
same,minimal effective concentration,[2],0.1 µg/mL
same,minimal effective concentration,[3],50 µg/mL
same,minimal effective dose,Antiasthmatic activity,25 mg/kg
"CN1CCN(C2c3ccccc3COc3ccc(Cl)cc32)CC1 (stereo not drawn) [Compound 70, 2-chloro-11-(4-methyl-1-piperazinyl)-6,11-dihydrodibenz[b,e]oxepin]",minimal effective concentration,[1],1 µg/mL
same,Acute toxicity: MLD (minimum lethal dose),male dd-strain rats; ip,100 mg/kg
same,Acute toxicity: MLD (minimum lethal dose),male dd-strain rats; po,200 mg/kg
same,minimal effective concentration,[2],0.3 µg/mL
same,minimal effective concentration,[3],50 µg/mL
same,minimal effective dose,Antiasthmatic activity,10 mg/kg
"Cc1ccc2c(c1)C(NCCCN(C)C)c1ccccc1CO2 (stereo not drawn) [Compound 14, 2-methyl-11-{3-(dimethylamino)propyl}amino-6,11-dihydrodibenz[b,e]oxepin]",minimal effective concentration,[1],10 µg/mL
same,Acute toxicity: MLD (minimum lethal dose),male dd-strain rats; ip,> 100 mg/kg
same,Acute toxicity: MLD (minimum lethal dose),male dd-strain rats; po,> 300 mg/kg
same,minimal effective concentration,[2],10 µg/mL
same,minimal effective concentration,[3],20 µg/mL
same,minimal effective dose,Antiasthmatic activity,100 mg/kg
"Cc1ccc2c(c1)C(N1CCN(C)CC1)c1ccccc1CO2 (stereo not drawn) [Compound 67, 2-methyl-11-(4-methyl-1-piperazinyl)-6,11-dihydrodibenz[b,e]oxepin]",minimal effective concentration,[1],10 µg/mL
same,Acute toxicity: MLD (minimum lethal dose),male dd-strain rats; ip,> 100 mg/kg
same,Acute toxicity: MLD (minimum lethal dose),male dd-strain rats; po,> 300 mg/kg
same,minimal effective concentration,[2],0.3 µg/mL
same,minimal effective concentration,[3],50 µg/mL
same,minimal effective dose,Antiasthmatic activity,25 mg/kg
"CCc1ccc2c(c1)C(NCCN(C)C)c1ccccc1CO2 (stereo not drawn) [Compound 17, 2-ethyl-11-{2-(dimethylamino)ethyl}amino-6,11-dihydrodibenz[b,e]oxepin]",minimal effective concentration,[1],0.01 µg/mL
same,Acute toxicity: MLD (minimum lethal dose),male dd-strain rats; ip,> 100 mg/kg
same,Acute toxicity: MLD (minimum lethal dose),male dd-strain rats; po,300 mg/kg
same,minimal effective concentration,[2],0.3 µg/mL
same,minimal effective concentration,[3],50 µg/mL
same,minimal effective dose,Antiasthmatic activity,10 mg/kg
"CCC(C)c1ccc2c(c1)C(NC1CN3CCC1CC3)c1ccccc1CO2 (stereo not drawn) [Compound 51, 2-(1-methyl)propyl-11-(3-quinuclidinyl)amino-6,11-dihydrodibenz[b,e]oxepin]",minimal effective concentration,[1],1 µg/mL
same,Acute toxicity: MLD (minimum lethal dose),male dd-strain rats; ip,100 mg/kg
same,Acute toxicity: MLD (minimum lethal dose),male dd-strain rats; po,> 300 mg/kg
same,minimal effective concentration,[2],0.3 µg/mL
same,minimal effective concentration,[3],50 µg/mL
same,minimal effective dose,Antiasthmatic activity,50 mg/kg
"CCN1CCCC1CNC1c2ccccc2COc2ccc(C)cc21 (stereo not drawn) [Compound 28, 2-methyl-11-{(1-ethyl-2-pyrrolidinyl)methyl}-amino-6,11-dihydrodibenz[b,e]oxepin]",minimal effective concentration,[1],1 µg/mL
same,Acute toxicity: MLD (minimum lethal dose),male dd-strain rats; ip,100 mg/kg
same,Acute toxicity: MLD (minimum lethal dose),male dd-strain rats; po,300 mg/kg
same,minimal effective concentration,[2],1 µg/mL
same,minimal effective concentration,[3],50 µg/mL
same,minimal effective dose,Antiasthmatic activity,25 mg/kg
"CCN(CC)CCNC1c2ccccc2COc2ccc(F)cc21 (stereo not drawn) [Compound 9, 2-fluoro-11-{2-(diethylamino)ethyl}amino-6,11-dihydrodibenz[b,e]oxepin]",minimal effective concentration,[1],3 µg/mL
same,Acute toxicity: MLD (minimum lethal dose),male dd-strain rats; ip,100 mg/kg
same,Acute toxicity: MLD (minimum lethal dose),male dd-strain rats; po,> 300 mg/kg
same,minimal effective concentration,[2],1 µg/mL
same,minimal effective concentration,[3],50 µg/mL
same,minimal effective dose,Antiasthmatic activity,50 mg/kg
"CC(C)(C)c1ccc2c(c1)C(NC1CN3CCC1CC3)c1ccccc1CO2 (stereo not drawn) [Compound 52, 2-(1,1-dimethyl)ethyl-11-(3-quinuclidinyl)amino-6,11-dihydrodibenz[b,e]oxepin]",minimal effective concentration,[1],3 µg/mL
same,Acute toxicity: MLD (minimum lethal dose),male dd-strain rats; ip,100 mg/kg
same,Acute toxicity: MLD (minimum lethal dose),male dd-strain rats; po,> 300 mg/kg
same,minimal effective concentration,[2],0.3 µg/mL
same,minimal effective concentration,[3],1 µg/mL
same,minimal effective dose,Antiasthmatic activity,50 mg/kg
"CCc1ccc2c(c1)C(N1CCN(C)CC1)c1ccccc1CO2 (stereo not drawn) [Compound 66, 2-ethyl-11-(4-methyl-1-piperazinyl)-6,11-dihydrodibenz[b,e]oxepin]",minimal effective concentration,[1],10 µg/mL
same,Acute toxicity: MLD (minimum lethal dose),male dd-strain rats; ip,> 100 mg/kg
same,Acute toxicity: MLD (minimum lethal dose),male dd-strain rats; po,> 300 mg/kg
same,minimal effective concentration,[2],1 µg/mL
same,minimal effective concentration,[3],50 µg/mL
same,minimal effective dose,Antiasthmatic activity,10 mg/kg
"4-methyl-11-(3-quinuclidinyl)amino-6,11-dihydrodibenz[b,e]oxepin [Compound 56]",Anticholinergic activity: MED (minimum effective dose),[1],1 µg/mL
same,Acute toxicity: MLD (minimum lethal dose),male dd-strain rats; ip,100 mg/kg
same,Acute toxicity: MLD (minimum lethal dose),male dd-strain rats; po,200 mg/kg
same,Antihistaminergic activity: MED,[2],1 µg/mL
same,Antiplatelet aggregation activity: MED,[3],20 µg/mL
same,Antiasthmatic activity: MED,Antiasthmatic activity,100 mg/kg
"OCCN1CCN(C2c3ccccc3COc3ccc(F)cc32)CC1 (stereo not drawn) [Compound 39, 2-fluoro-11-{4-(2-hydroxyethyl)-1-piperazinyl}-6,11-dihydrodibenz[b,e]oxepin]",minimal effective concentration,[1],1 µg/mL
same,Acute toxicity: MLD (minimum lethal dose),male dd-strain rats; ip,100 mg/kg
same,Acute toxicity: MLD (minimum lethal dose),male dd-strain rats; po,> 300 mg/kg
same,minimal effective concentration,[2],10 µg/mL
same,minimal effective concentration,[3],50 µg/mL
same,minimal effective dose,Antiasthmatic activity,100 mg/kg
"Clc1ccc2c(c1)C(NC1CN3CCC1CC3)c1ccccc1CO2 (stereo not drawn) [Compound 23, 2-chloro-11-(3-quinuclidinyl)amino-6,11-dihydrodibenz[b,e]oxepin]",minimal effective concentration,[1],1 µg/mL
same,Acute toxicity: MLD (minimum lethal dose),male dd-strain rats; ip,100 mg/kg
same,Acute toxicity: MLD (minimum lethal dose),male dd-strain rats; po,300 mg/kg
same,minimal effective concentration,[2],0.3 µg/mL
same,minimal effective concentration,[3],100 µg/mL
same,minimal effective dose,Antiasthmatic activity,50 mg/kg
"CCN(CC)CCNC1c2ccccc2COc2ccc(OC)cc21 (stereo not drawn) [Compound 13, 2-methoxy-11-{2-(diethylamino)ethyl}amino-6,11-dihydrodibenz[b,e]oxepin]",minimal effective concentration,[1],1 µg/mL
same,Acute toxicity: MLD (minimum lethal dose),male dd-strain rats; ip,> 100 mg/kg
same,Acute toxicity: MLD (minimum lethal dose),male dd-strain rats; po,> 300 mg/kg
same,minimal effective concentration,[2],0.3 µg/mL
same,minimal effective concentration,[3],20 µg/mL
same,minimal effective dose,Antiasthmatic activity,100 mg/kg
"CN(C)CCNC1c2ccccc2COc2ccc(Cl)cc21 (stereo not drawn) [Compound 19, 2-chloro-11-{2-(dimethylamino)ethyl}amino-6,11-dihydrodibenz[b,e]oxepin]",minimal effective concentration,[1],3 µg/mL
same,Acute toxicity: MLD (minimum lethal dose),male dd-strain rats; ip,> 100 mg/kg
same,Acute toxicity: MLD (minimum lethal dose),male dd-strain rats; po,> 300 mg/kg
same,minimal effective concentration,[2],1 µg/mL
same,minimal effective concentration,[3],50 µg/mL
same,minimal effective dose,Antiasthmatic activity,25 mg/kg
"Cc1ccc2c(c1)C(NC1CN3CCC1CC3)c1ccccc1CO2 (stereo not drawn) [Compound 20, 2-methyl-11-(3-quinuclidinyl)amino-6,11-dihydrodibenz[b,e]oxepin]",minimal effective concentration,[1],1 µg/mL
same,Acute toxicity: MLD (minimum lethal dose),male dd-strain rats; ip,50 mg/kg
same,Acute toxicity: MLD (minimum lethal dose),male dd-strain rats; po,300 mg/kg
same,minimal effective concentration,[2],0.1 µg/mL
same,minimal effective concentration,[3],100 µg/mL
same,minimal effective dose,Antiasthmatic activity,50 mg/kg
